Measured values published in patent US10980764B1, “Exogenous ketone supplements for reducing anxiety-related behavior” (priority 2016, dated 2021).

Legend:
WAG/Rij rats = experiment: EPM after 7 days oral gavage, WAG/Rij rats, Study 1; assay type: in vivo, rat; details: 7 days gavage ~2.5 g/kg b.w./day, compared to control (SD)
Experimental: To extend the results and ensure that the results were not strain dependent, exogenous ketone supplements were tested on both SPD rats and Wistar Albino Glaxo/Rijswijk (WAG/Rij) rats for 7 days by gavage (5 g/kg/day and 2.5 g/kg/day, respectively, SD+KE and SD+KS), as WAG/Rij rats show reduced activity of GABAergic system (Luhmann H J, et al. Impairment of intracortical GABAergic inhibition in a rat model of absence epilepsy. Epilepsy Res. 1995 September; 22(1):43-51).
(§1) EPM (COULBOURN Instruments) was used to assess anxiety-related behavior of the rats after 83 days of chronic feeding or after 7 days of oral gavage. EPM experiments were carried out under non-stressful conditions (in a dimly lit and quiet room) between 12.00 and 14.00 hours.
(§2) The rats were transferred in their home cage to the experimental room 30 min prior to beginning the experiment. Briefly, rats were placed in the intersection of the four arms of the EPM, facing the open arm opposite to where the experimenter was and their behavior was recorded for 5 minutes. The amount of time spent and number of entries made on the open arms, closed arms and the center zones were recorded. Latency to entry into the closed arms and the distance travelled in each zones was also measured in chronically treated SPD rats. Notes were made on other ethological measures such as number of rears, head dips, fecal boli, and freezing, or stretched-attend postures.
(§3) At the end of the 5-minute test the rats were removed from the maze and placed back into their home cage. The maze was cleaned with 70% alcohol and after it with tap water and dried with paper towel between rats. The primary method for data collection was a video-tracking system with computer interface and video camera (SMART V3.0 PLATFORM, PANLAB, Harvard Apparatus, USA), to automatically collect behavioral data in SPD rats. A blinded observer was present in the testing room separated from the maze by a curtain, and manually collected EPM data in both SPD and WAG/Rij animals at the end of treatments.
Results were considered significant when p<0.05. Significance was determined by unpaired t-test.

[1] = Blood βHB and glucose levels (Precision Xtra), SPD rats, Study 3
Source text: A total of 48 male SPD rats were fed for 83 days with either standard rodent chow (2018 Teklad Global 18% Protein Rodent Diet (#2018), Harlan) (SD/control; n=9) or SD+ketone supplementation. […] Higher dose was used for chronic administration, as the rats were consuming food-integrated ketone supplementation throughout the day, not at a single time point.
In order to familiarize the animals to the intragastric gavage method, water was gavaged for 5 days prior to ketone supplementation.
In the chronic feeding study, blood βHB and glucose levels were measured 24 hours before the 1st day of ketone treatments (baseline levels) and at the 13th week after the EPM experiment. In the 7-day oral gavage studies, blood βHB and glucose levels were measured 24 hours before the 1st day of ketone treatments (baseline levels; SPD and WAG/Rij rats), 24 hours after the first gavage, and 60 min after gavage on the 7th day (SPD and WAG/Rij rats). Whole blood samples (10 μL) were taken from the saphenous vein for analysis of blood glucose (mg/dl) and βHB (mmol/1) levels with the commercially available glucose and ketone (βHB) monitoring system Precision Xtra™ (Abbott Laboratories, Abbott Park, Ill., USA).
(§4) All data are presented as the mean±standard error of the mean (SEM). The effects of ketone supplementations on anxiety-related behavior were compared, as well as on blood βHB and glucose levels to control or/and baseline levels. Data analysis was performed using GraphPad PRISM version 6.0a. Results were considered significant when p<0.05. Significance was determined by one-way ANOVA with Fisher s LSD test for the behavioral data. Blood ketone, blood glucose, and body weight change were compared using a two-way ANOVA with Tukey's multiple comparisons test.

[2] = Blood βHB and glucose compared between SPD and WAG/Rij rats, Study 1; assay type: in vivo, rat; details: for Glucose, Mean Diff., Tukey's multiple comparisons test (Compare S-D to WagRij) / βHB, Mean Diff., Tukey's multiple comparisons test (Compare S-D to WagRij): 7 days:S-D minus 7 days:WR, same supplement (5 vs 2.5 g/kg/day); for βHB levels in WAG/Rij rats compared to SPD rats: before (baseline) and after sub-chronic ketone supplementation
[3] = tested on: Sprague-Dawley (SPD) rats; experiment: Elevated plus maze (EPM) after 83 days chronic feeding, Study 1; assay type: in vivo, rat; details: compared to control (SD)
Experimental: Generally, exogenous ketone supplements were tested and fed chronically for 83 days and administered sub-chronically for 7 days by gavage, followed by assessment of anxiety measures on elevated plus maze (EPM) on 97 male SPD rats.
(§5) In order to familiarize the animals to the intragastric gavage method, tap water was gavaged for 5 days before ketone supplementation. A total of 48 male SPD rats were fed for 83 days with either standard rodent chow (SD)+water application (˜25 g/kg b.w. water/day) (SD/control group; n=9) or SD+ketone supplementation by gavage.
as §1, §2, §3
as §4, with “anxiety level” for “anxiety-related behavior”, “unpaired t-test.” for “one-way ANOVA with Fisher s LSD test for the behavioral data.”, “test and unpaired t-test.” for “test.”

[4] = Blood βHB and glucose levels (PRECISION XTRA), SPD rats, Study 1; details: for Glucose, Mean Diff., Tukey's multiple comparisons test (Compare S-D to WagRij) / βHB, Mean Diff., Tukey's multiple comparisons test (Compare S-D to WagRij): S-D (SPD) rats, own Baseline minus 7 days of the same group; for Blood glucose levels: at 24 hours; for Blood βHB (90 days), Mean Diff., Tukey's multiple comparisons test: chronic feeding, After:SD (control) minus After:treated group
Experimental: as §5
In the chronic feeding study, blood βHB and glucose levels were measured 24 hours before the 1st day of ketone treatments (baseline levels) and after the 13th week of ketone treatment. In the 7-day oral gavage studies, blood βHB and glucose levels were measured 24 hours before the 1st day of ketone treatments (baseline levels; SPD and WAG/Rij rats) and after the 1st day (SPD rats) and the 7th day (SPD and WAG/Rij rats) of ketone gavaging. In acute study, blood βHB and glucose levels were measured 40 min after ketone treatment. Whole blood samples (10 μL) were taken from the saphenous vein for analysis of blood glucose (mg/dl) and βHB (mmol/1) levels with the commercially available glucose and ketone monitoring system PRECISION XTRA™ (ABBOTT Laboratories, Abbott Park, Ill., USA). The PRECISION XTRA™ ketone monitoring system only measures βHB blood levels; therefore, total blood ketone levels would be higher than measured.
as §4, with “anxiety level” for “anxiety-related behavior”, “unpaired t-test.” for “one-way ANOVA with Fisher s LSD test for the behavioral data.”, “test and unpaired t-test.” for “test.”

[5] = SPD rats, after 83 days of chronic feeding, compared to control
[6] = SPD rats, 7 days of gavaging, compared to baseline
[7] = SPD rats, 24h:SD (control) minus 24h:treated group

| Compound | Glucose, Mean Diff., Tukey's multiple comparisons test (Compare S-D to WagRij) [2] [mg/dL] | βHB, Mean Diff., Tukey's multiple comparisons test (Compare S-D to WagRij) [2] [mmol/1] | βHB levels in WAG/Rij rats compared to SPD rats [2] | Distance traveled in the closed arms ([3]; chronic feeding 83 days) | Latency to first entrance of closed arms ([3]; chronic feeding 83 days) | Glucose, Mean Diff., Tukey's multiple comparisons test (Compare S-D to WagRij) [4] [mg/dL] | βHB, Mean Diff., Tukey's multiple comparisons test (Compare S-D to WagRij) [4] [mmol/1] | Blood βHB [4, 6] | Blood βHB [4, 5] | Blood glucose levels ([4]; SPD rats, compared to baseline) | Blood βHB (90 days), Mean Diff., Tukey's multiple comparisons test ([4]; SPD rats) [mmol/1] | further results |
| --- | --- | --- | --- | --- | --- | --- | --- | --- | --- | --- | --- | --- |
| CC(=O)CC(=O)OCCC(C)OC(=O)CC(C)=O (centres unmarked) [KE, 1,3-butanediol-acetoacetate diester] | 27.5 | −0.9653 | Higher | significantly less | significantly greater | -1.841 | −0.1389 | did not change | elevated | lower | −0.2978 | Time spent in the center (WAG/Rij rats): more time; Blood βHB levels ([1]; SPD rats, 24 hours after a single gavage, compared to control): elevated; Blood glucose ([1]; SPD rats, after 13 weeks of chronic feeding): lower; Blood βHB levels [1, 5]: significantly elevated; Blood glucose levels ([1]; SPD rats, sub-chronic, at 24 hours, compared to control): lower; Blood βHB levels ([4]; SPD rats, 24 hours after a single gavage, compared to baseline): elevated; Blood glucose levels ([4]; SPD rats, compared to control group): lower; Blood glucose ([4]; SPD rats, from baseline to 7 days): did not change; Blood Glucose (7 days), Mean Diff., Tukey's multiple comparisons test [4, 7]: 33.11 mg/dL; Blood βHB (7 days), Mean Diff., Tukey's multiple comparisons test [4, 7]: −0.5235 mmol/1; Blood Glucose (7 days), Mean Diff., Tukey's multiple comparisons test ([4]; SPD rats, 24h minus 7days of the same group): -23.02 mg/dL; Blood Glucose (7 days), Mean Diff., Tukey's multiple comparisons test ([4]; SPD rats, own Baseline minus 24h of the same group): 21.18 mg/dL |
| Na^+/K^+-βHB mineral salt [KS] | 15.28 | −0.5614 | Higher | significantly less | significantly greater | -0.3258 | −0.4455 | significant difference | elevated | lower | −0.3653 | Entries to the closed arms (WAG/Rij rats): less frequent; Time spent in the closed arms (WAG/Rij rats): less time; Time spent in the open arms (WAG/Rij rats): more time; Blood βHB ([1]; rat, in vivo): elevated; Time spent in the open arms ([3]; chronic feeding 83 days (~25 g/kg b.w./day; LKE ~10)): significantly more; Distance traveled in the center ([3]; chronic feeding 83 days): more; Distance traveled in the open arms ([3]; chronic feeding 83 days): significantly greater; Time spent in the center ([3]; chronic feeding 83 days): significantly more; Time spent in the closed arms ([3]; chronic feeding 83 days): significantly less; Blood βHB (7 days), Mean Diff., Tukey's multiple comparisons test ([4]; SPD rats, 7days:SD (control) minus 7days:treated group): −0.547 mmol/1 |
